From patent publication EP0217101A1, “Substituted diphenyl ethers, process for their preparation and their use as herbicides” (HOECHST AKTIENGESELLSCHAFT, priority 1985, dated 1987)

Legend:
Format in all cases: in vivo
Echinochloa crus-galli [1] = assay: Weed control pre-emergence (greenhouse pot test); parameters: key: 0: = ohne Wirkung bzw. Schaden; 1: = 0 - 20 % Wirkung bzw. Schaden; = 20 - 40 % Wirkung bzw. Schaden; 3: = 40 - 60 % Wirkung bzw. Schaden; 4: = 60 - 80 % Wirkung bzw. Schaden; 5: = 80 - 100 % Wirkung bzw. Schaden; conditions: pre-emergence, 2,5 kg a.i./ha, visual rating after 3-4 weeks
Text: (§1) Die Schädigung der Unkrautpflanzen bzw. die Kulturpflanzenverträglichkeit wurde gemäß einem Schlüssel bonitiert, in dem die Wirksamkeit durch Wertzahlen von 0 - 5 ausgedrückt ist. Dabei bedeutet:
(§2) Samen bzw. Rhizomstücke von mono- und dikotylen Unkrautpflanzen wurden in Plasstiktöpfen (0 = 9 cm) in sandiger Lehmerde ausgelegt und mit Erde abgedeckt. Die in Form von benetzbaren Pulvern oder Emulsionskonzentraten formulierten erfindungsgemäßen Verbindungen wurden dann als wäßrige Suspensionen bzw. Emulsionen mit einer Wasseraufwandmenge von umgerechnet 600-800 1/ha in unterschiedlichen Dosierungen auf die Oberfläche der Abdeckerde appliziert. Nach der Behandlung wurden die Töpfe im Gewächshaus aufgestellt und unter guten Wachstumsbedingungen für die Unkrautpflanzen gehalten (Temperatur 23 plus/minus 1 Grad Celsius, relative Luftfeuchte 60-80 %).
(§3) Die optische Bonitur der Pflanzen- bzw. Auflaufschäden erfolgte nach dem Auflaufen der Versuchspflanzen nach einer Versuchszeit von 3-4 Wochen im Vergleich zu unbehandelten Kontrollen.

Stellaria media [2] = assay: Weed control pre-emergence (greenhouse pot test); parameters: key: 0: = ohne Wirkung bzw. Schaden; 1: = 0 - 20 % Wirkung bzw. Schaden; = 20 - 40 % Wirkung bzw. Schaden; 3: = 40 - 60 % Wirkung bzw. Schaden; 4: = 60 - 80 % Wirkung bzw. Schaden; 5: = 80 - 100 % Wirkung bzw. Schaden; conditions: pre-emergence, 2,5 kg a.i./ha, visual rating after 3-4 weeks
Text: as §1, §2, §3

Chrysanthemum segetum [3] = assay: Weed control post-emergence (greenhouse pot test); conditions: post-emergence (three-leaf stage), 2,5 kg a.i./ha, visual rating after ca. 3-4 weeks
Text: as §1
(§4) Samen bzw. Rhizomstüeke von mono- und dikotylen Unkräutern wurden in Plasstiktöpfen (φ= 9 cm) in sandigem Lehmboden ausgelegt, mit Erde abgedeckt und im Gewächshaus unter guten Wachstumsbedingungen angezogen. Drei Wochen nach der Aussaat wurden die Versuchspflanzen im Dreiblattstadium behandelt. Die als Spritzpulver bzw. als Eτulsionskonzentrate formulierten erfindungsgemäßen Verbindungen wurden in verschiedenen Dosierungen mit einer Wasseraufwandmenge von umgerechnet 600-800 l/ha auf die grünen Pflanzenteile gesprüht und nach ca. 3-4 Wochen Standzeit der Versuchspflanzen im Gewächshaus unter optimalen Wachstumsbedingungen (Temperatur 23°C +/- 1°C, relative Luftfeuchte 60-80 %) die Wirkung der Präparate optisch im Vergleich zu unbehandelten Kontrollen bonitiert.

Avena sativa [4] = assay: Weed control post-emergence (greenhouse pot test); conditions: post-emergence (three-leaf stage), 2,5 kg a.i./ha, visual rating after ca. 3-4 weeks
Text: as §1, §4

Sinapis arvensis [5] = assay: Weed control post-emergence (greenhouse pot test); conditions: post-emergence (three-leaf stage), 2,5 kg a.i./ha, visual rating after ca. 3-4 weeks
Text: as §1, §4

Chrysanthemum segetum [6] = assay: Weed control pre-emergence (greenhouse pot test); conditions: pre-emergence, 2,5 kg a.i./ha, visual rating after 3-4 weeks
Text: as §1, §2, §3

Avena sativa [7] = assay: Weed control pre-emergence (greenhouse pot test); conditions: pre-emergence, 2,5 kg a.i./ha, visual rating after 3-4 weeks
Text: as §1, §2, §3

Sinapis arvensis [8] = assay: Weed control pre-emergence (greenhouse pot test); conditions: pre-emergence, 2,5 kg a.i./ha, visual rating after 3-4 weeks
Text: as §1, §2, §3

Echinochloa crus-galli [9] = assay: Weed control post-emergence (greenhouse pot test); parameters: key: 0: = ohne Wirkung bzw. Schaden; 1: = 0 - 20 % Wirkung bzw. Schaden; = 20 - 40 % Wirkung bzw. Schaden; 3: = 40 - 60 % Wirkung bzw. Schaden; 4: = 60 - 80 % Wirkung bzw. Schaden; 5: = 80 - 100 % Wirkung bzw. Schaden; conditions: post-emergence (three-leaf stage), 2,5 kg a.i./ha, visual rating after ca. 3-4 weeks
Text: as §1, §4

Stellaria media [10] = assay: Weed control post-emergence (greenhouse pot test); parameters: key: 0: = ohne Wirkung bzw. Schaden; 1: = 0 - 20 % Wirkung bzw. Schaden; = 20 - 40 % Wirkung bzw. Schaden; 3: = 40 - 60 % Wirkung bzw. Schaden; 4: = 60 - 80 % Wirkung bzw. Schaden; 5: = 80 - 100 % Wirkung bzw. Schaden; conditions: post-emergence (three-leaf stage), 2,5 kg a.i./ha, visual rating after ca. 3-4 weeks
Text: as §1, §4

SMILES	Herbizide Wirkung im Vorauflauf ECG (Echinochloa crus-galli [1])	Herbizide Wirkung im Vorauflauf STM (Stellaria media [2])	Herbizide Wirkung im Nachauflauf CRS (Chrysanthemum segetum [3])	Herbizide Wirkung im Nachauflauf AS (Avena sativa [4])	Herbizide Wirkung im Nachauflauf SIA (Sinapis arvensis [5])	Herbizide Wirkung im Vorauflauf CRS (Chrysanthemum segetum [6])	Herbizide Wirkung im Vorauflauf AS (Avena sativa [7])	Herbizide Wirkung im Vorauflauf SIA (Sinapis arvensis [8])	Herbizide Wirkung im Nachauflauf ECG (Echinochloa crus-galli [9])	Herbizide Wirkung im Nachauflauf STM (Stellaria media [10])
CCOC(OC(=O)c1cc(Oc2ccc(C(F)(F)F)cc2Cl)ccc1[N+](=O)[O-])C(Cl)(Cl)Cl (stereo not drawn) [compound 5, 5-(2-Chlor-4-trifluormethylahenoxy)-2-nitrobenzoesäure-2,2,2-trichlor-1-ethoxyethylester]	3 (= 40 - 60 % Wirkung bzw. Schaden)	2 (= 20 - 40 % Wirkung bzw. Schaden)	4 (= 60 - 80 % Wirkung bzw. Schaden)	1 (= 0 - 20 % Wirkung bzw. Schaden)	5 (= 80 - 100 % Wirkung bzw. Schaden)	5 (= 80 - 100 % Wirkung bzw. Schaden)	2 (= 20 - 40 % Wirkung bzw. Schaden)	5 (= 80 - 100 % Wirkung bzw. Schaden)	2 (= 20 - 40 % Wirkung bzw. Schaden)	2 (= 20 - 40 % Wirkung bzw. Schaden)
CCOC(=O)C(C)OC(OC(=O)c1cc(Oc2c(Cl)cc(C(F)(F)F)cc2Cl)ccc1[N+](=O)[O-])C(Cl)(Cl)Cl (stereo not drawn) [compound 34]	1 (= 0 - 20 % Wirkung bzw. Schaden)	5 (= 80 - 100 % Wirkung bzw. Schaden)	5 (= 80 - 100 % Wirkung bzw. Schaden)	5 (= 80 - 100 % Wirkung bzw. Schaden)	5 (= 80 - 100 % Wirkung bzw. Schaden)	5 (= 80 - 100 % Wirkung bzw. Schaden)	2 (= 20 - 40 % Wirkung bzw. Schaden)	5 (= 80 - 100 % Wirkung bzw. Schaden)	4 (= 60 - 80 % Wirkung bzw. Schaden)	5 (= 80 - 100 % Wirkung bzw. Schaden)
CP(C)(=O)COC(OC(=O)c1cc(Oc2ccc(C(F)(F)F)cc2Cl)ccc1[N+](=O)[O-])C(Cl)(Cl)Cl (stereo not drawn) [compound 46]	5 (= 80 - 100 % Wirkung bzw. Schaden)	1 (= 0 - 20 % Wirkung bzw. Schaden)	5 (= 80 - 100 % Wirkung bzw. Schaden)	2 (= 20 - 40 % Wirkung bzw. Schaden)	5 (= 80 - 100 % Wirkung bzw. Schaden)	5 (= 80 - 100 % Wirkung bzw. Schaden)	4 (= 60 - 80 % Wirkung bzw. Schaden)	5 (= 80 - 100 % Wirkung bzw. Schaden)	2 (= 20 - 40 % Wirkung bzw. Schaden)	2 (= 20 - 40 % Wirkung bzw. Schaden)
CCOC(=O)C(C)(C)OC(OC(=O)c1cc(Oc2ccc(C(F)(F)F)cc2Cl)ccc1[N+](=O)[O-])C(Cl)(Cl)Cl (stereo not drawn) [compound 30]	5 (= 80 - 100 % Wirkung bzw. Schaden)	2 (= 20 - 40 % Wirkung bzw. Schaden)	5 (= 80 - 100 % Wirkung bzw. Schaden)	5 (= 80 - 100 % Wirkung bzw. Schaden)	5 (= 80 - 100 % Wirkung bzw. Schaden)	5 (= 80 - 100 % Wirkung bzw. Schaden)	5 (= 80 - 100 % Wirkung bzw. Schaden)	5 (= 80 - 100 % Wirkung bzw. Schaden)	4 (= 60 - 80 % Wirkung bzw. Schaden)	5 (= 80 - 100 % Wirkung bzw. Schaden)
O=C(OC(OCC(F)(F)C(F)F)C(Cl)(Cl)Cl)c1cc(Oc2ccc(C(F)(F)F)cc2Cl)ccc1[N+](=O)[O-] (stereo not drawn) [compound 7]	5 (= 80 - 100 % Wirkung bzw. Schaden)	2 (= 20 - 40 % Wirkung bzw. Schaden)	5 (= 80 - 100 % Wirkung bzw. Schaden)	2 (= 20 - 40 % Wirkung bzw. Schaden)	5 (= 80 - 100 % Wirkung bzw. Schaden)	5 (= 80 - 100 % Wirkung bzw. Schaden)	3 (= 40 - 60 % Wirkung bzw. Schaden)	3 (= 40 - 60 % Wirkung bzw. Schaden)	3 (= 40 - 60 % Wirkung bzw. Schaden)	5 (= 80 - 100 % Wirkung bzw. Schaden)
Cc1ncsc1COC(OC(=O)c1cc(Oc2ccc(C(F)(F)F)cc2Cl)ccc1[N+](=O)[O-])C(Cl)(Cl)Cl (stereo not drawn) [compound 37]	2 (= 20 - 40 % Wirkung bzw. Schaden)	1 (= 0 - 20 % Wirkung bzw. Schaden)	4 (= 60 - 80 % Wirkung bzw. Schaden)	2 (= 20 - 40 % Wirkung bzw. Schaden)	5 (= 80 - 100 % Wirkung bzw. Schaden)	3 (= 40 - 60 % Wirkung bzw. Schaden)	2 (= 20 - 40 % Wirkung bzw. Schaden)	4 (= 60 - 80 % Wirkung bzw. Schaden)	2 (= 20 - 40 % Wirkung bzw. Schaden)	0
CC1(C)OCC(COC(OC(=O)c2cc(Oc3ccc(C(F)(F)F)cc3Cl)ccc2[N+](=O)[O-])C(Cl)(Cl)Cl)O1 (stereo not drawn) [compound 6, 5-(2-Chlor-4-trifluormethylphenoxy)-2-nitrobenzoesäure-1-(2,2-dimethyl-1,3-dioxolan-4-yl)-methoxy-2,2,2-trichlorethylester]	0	0	4 (= 60 - 80 % Wirkung bzw. Schaden)	1 (= 0 - 20 % Wirkung bzw. Schaden)	4 (= 60 - 80 % Wirkung bzw. Schaden)	3 (= 40 - 60 % Wirkung bzw. Schaden)	1 (= 0 - 20 % Wirkung bzw. Schaden)	2 (= 20 - 40 % Wirkung bzw. Schaden)	0	3 (= 40 - 60 % Wirkung bzw. Schaden)
COC(=O)CC(OC(OC(=O)c1cc(Oc2ccc(C(F)(F)F)cc2Cl)ccc1[N+](=O)[O-])C(Cl)(Cl)Cl)C(=O)OC (stereo not drawn) [compound 31]	5 (= 80 - 100 % Wirkung bzw. Schaden)	2 (= 20 - 40 % Wirkung bzw. Schaden)	5 (= 80 - 100 % Wirkung bzw. Schaden)	4 (= 60 - 80 % Wirkung bzw. Schaden)	5 (= 80 - 100 % Wirkung bzw. Schaden)	5 (= 80 - 100 % Wirkung bzw. Schaden)	5 (= 80 - 100 % Wirkung bzw. Schaden)	5 (= 80 - 100 % Wirkung bzw. Schaden)	3 (= 40 - 60 % Wirkung bzw. Schaden)	5 (= 80 - 100 % Wirkung bzw. Schaden)
CCOC(=O)C(C)OC(OC(=O)c1cc(Oc2ccc(C(F)(F)F)cc2Cl)ccc1[N+](=O)[O-])C(Cl)(Cl)Cl (stereo not drawn) [compound 23]	5 (= 80 - 100 % Wirkung bzw. Schaden)	5 (= 80 - 100 % Wirkung bzw. Schaden)	5 (= 80 - 100 % Wirkung bzw. Schaden)	1 (= 0 - 20 % Wirkung bzw. Schaden)	5 (= 80 - 100 % Wirkung bzw. Schaden)	5 (= 80 - 100 % Wirkung bzw. Schaden)	5 (= 80 - 100 % Wirkung bzw. Schaden)	5 (= 80 - 100 % Wirkung bzw. Schaden)	2 (= 20 - 40 % Wirkung bzw. Schaden)	5 (= 80 - 100 % Wirkung bzw. Schaden)
